{"source": "patent US6207399A", "about": "“Methods of determining endogenous thrombin potential (ETP) and thrombin substrates for use in said methods” (Hemker; Hendrik Coenraad, priority 1995, dated 2001)", "key": {"[1]": {"target": "T1, human α-thrombin (Homo sapiens, UniProt P00734)", "T1 construct": "Pure human α-thrombin; gift of Dr. T. Lindhout (University of Limburg, Maastricht)", "experiment": "Kinetics of hydrolysis of substrates by human α-thrombin in buffer A at 37° C. (Example 2, Table 1)", "assay_type": "biochemical", "outline": "(§1)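 p-Nitroaniline release was followed at 405 nm (dual wavelength 405-546 nm) in buffer A at 37° C, with substrate at 1 to 2000 μM (at least six levels) preincubated 5 min before enzyme at 0.5 to 100 nM. Km and kcat came from initial velocities fitted to Michaelis-Menten by linear regression, from one or two experiments.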"}, "[2]": {"target": "T2, factor Xa (Homo sapiens, UniProt P00742)", "T2 construct": "human factor Xa samples; gift of Dr. T. Lindhout (University of Limburg, Maastricht)", "T2 sequence (P00742 41-179 limits assumed)": "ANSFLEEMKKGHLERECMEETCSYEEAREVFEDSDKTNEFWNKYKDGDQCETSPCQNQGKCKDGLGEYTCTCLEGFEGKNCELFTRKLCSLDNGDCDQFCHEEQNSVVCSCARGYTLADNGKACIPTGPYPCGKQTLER", "T2 sequence (P00742 235-488 limits assumed)": "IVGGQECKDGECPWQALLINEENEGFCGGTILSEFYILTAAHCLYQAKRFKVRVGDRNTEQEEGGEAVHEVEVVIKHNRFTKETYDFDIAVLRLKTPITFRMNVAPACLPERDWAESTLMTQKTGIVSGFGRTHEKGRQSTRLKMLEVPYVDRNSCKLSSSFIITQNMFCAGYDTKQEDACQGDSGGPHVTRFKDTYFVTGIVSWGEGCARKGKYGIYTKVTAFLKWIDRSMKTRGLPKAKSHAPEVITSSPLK", "experiment": "Kinetics of hydrolysis of substrates by human factor Xa in buffer A at 37° C. (Example 2, Table 2)", "assay_type": "biochemical", "parameters": "key to kcat: NH: not hydrolyzed by factor Xa", "outline": "as §1"}, "[3]": {"target": "T2, factor Xa", "experiment": "Kinetic parameters of hydrolysis of the substrates by factor Xa in buffer A at 37° C. (Example 4, Table 3)", "assay_type": "biochemical", "parameters": "key to Factor Xa kcat: NH: no hydrolysis", "settings": "buffer A, 37° C., 50 nM factor Xa", "outline": "(§2)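 p-Nitroaniline release followed at 405 nm in buffer A at 37 °C, with at least six substrate levels of 200–2000 μM. Thrombin at 0.5–50 nM, factor Xa at 50 nM; Km and kcat from initial velocities by linear regression on Michaelis-Menten.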"}, "[4]": {"test_system": "thrombin generation in tissue factor triggered plasma", "experiment": "Manual determination of thrombin generation in plasma (subsampling method) and calculated prothrombinase activity", "assay_type": "biochemical, human"}, "[5]": {"test_system": "thrombin", "settings": "Svendsen et al; cited from earlier work"}, "[6]": {"target": "thrombin (Homo sapiens, UniProt P00734)", "experiment": "Kinetic parameters of hydrolysis of the substrates by thrombin in buffer A at 37° C. (Example 4, Table 3)", "assay_type": "biochemical", "parameters": "Pure human α-thrombin; gift of Dr. T. Lindhout (University of Limburg, Maastricht)", "settings": "buffer A, 37° C.", "outline": "as §2"}}, "note": "Peptide text beside a SMILES is read from it. * marks the point of attachment. pNA = O=[N+]([O-])c1ccc(N*)cc1", "data": [{"compound": "CC(C)[C@H](N)C(=O)N[C@@H](CCCNC(=N)N)C(=O)Nc1ccc([N+](=O)[O-])cc1.Cl.Cl", "note": "[2HCl.H-Val-Arg-pNA] (H-Val-Arg-pNA)", "values": [{"measurement": "Km", "setting": "[1]", "result": 1240, "unit": "µM"}, {"measurement": "kcat", "setting": "[1]", "result": 0.23, "unit": "s⁻¹"}, {"measurement": "kcat /Km", "setting": "[1]", "result": 186, "unit": "M/s"}, {"measurement": "kcat", "setting": "[2]", "result": "NH"}, {"measurement": "Factor Xa kcat", "setting": "[3]", "result": "NH"}, {"measurement": "k2,M : k2 determined by the subsampling method", "setting": "[4]; [S] 200 μM in plasma", "result": 0.234, "unit": "min⁻¹"}, {"measurement": "k2,M : k2 determined by the subsampling method", "setting": "[4]; [S] 500 μM in plasma", "result": 0.207, "unit": "min⁻¹"}, {"measurement": "k2,M : k2 determined by the subsampling method", "setting": "[4]; [S] 1000 μM in plasma", "result": 0.199, "unit": "min⁻¹"}, {"measurement": "influence on the prothrombinase complex / coagulation cascade", "setting": "[4]; calculated from decay constants and manual thrombin generation curves", "result": "clearly decreases its concentration"}, {"measurement": "factor by which poorer substrate for thrombin than Benzoyl-Phe-Val-Arg-p-nitroanilide", "setting": "[5]", "result": "≥ 100"}, {"measurement": "Km", "setting": "[6]", "result": 1240, "unit": "µM"}, {"measurement": "Thrombin kcat", "setting": "[6]", "result": 0.23, "unit": "s⁻¹"}, {"measurement": "Thrombin kcat /Km", "setting": "[6]", "result": 186, "unit": "M/s"}]}]}
